# According to patent publication US8158792B2, “Spiropiperidines for use as tryptase inhibitors” (Janssen Pharmaceutica N.V., priority 2007, dated 2012):
# Assays:
# [1] = target: human lung tryptase; assay: β-Tryptase In-Vitro Enzyme Assay; assay type: biochemical; conditions: human lung tryptase 1 nM, substrate H-D-HHT-Ala-Arg-pNa 500 μM, pH 7.4, room temperature
# Protocol: The β-tryptase assay was conducted with human lung tryptase (Cortex Biochem #CP3033) in an aqueous buffer (10 mM Tris, 10 mM Hepes, 150 mM NaCl, 0.1% PEG 8000, pH 7.4) using the chromogenic substrate H-D-HHT-Ala-Arg-pNa. […] Percent inhibition was calculated by comparing the initial reaction velocity of samples without inhibitor to those with inhibitor. The initial reaction velocities were analyzed using Microsoft Excel.
# [2] = test system: guinea pig model of allergic asthma; assay: Guinea Pig Efficacy Model (OVA allergic asthma); assay type: in vivo
# Protocol: The in vivo efficacy of Compound 3 was evaluated in a guinea pig model of allergic asthma. In this model, guinea pigs were sensitized and challenged with chicken egg ovalbumin (OVA) according to the protocol of N. Smith and F. J. Johnson (Clin. Exp. Allergy 2005, 35, 522-530), with some slight modifications. Guinea pigs were sensitized with 80 mg of OVA and 80 mg of aluminum hydroxide administered intraperitoneally on day 0, then challenged with 0.03% OVA aerosol for 10 minutes on day 14. In the experiment measuring early phase pulmonary response (EAR), guinea pigs were challenged for an additional three minutes with 0.06% OVA aerosol. EAR was measured as enhanced pause (PenH) using BUXCO whole body plethysmography for 10 minutes immediately following the OVA aerosol challenge. The animals were then euthanized and assessed for bronchoalveolar lavage (BAL) immune cell counts 24 hours after aerosol challenge on day 15. Either Compound 3 in doses of 3, 10, and/or 30 mg/kg or vehicle were administered subcutaneously, 1-2 hours before and 4-6 hours after OVA aerosol challenge.
# [3] = test system: antigen-induced allergic sheep; assay: Sheep Efficacy Model (antigen-induced allergic sheep asthma model); assay type: in vivo; conditions: 30 mg/kg BID oral gavage, two sheep
# Protocol: The in vivo efficacy of Compound 3 was evaluated in antigen-induced allergic sheep, which is a well-characterized asthma model (Abraham, W. M. Pulmonary Pharmacol. 1989, 2, 33-40). Compound 3 was administered via oral gavage to two sheep previously shown to be allergic responders to inhaled Ascaris suum antigen (FIG. 1). The compound was given at a dose of 30 mg/kg, BID, on day 1, and again on day 2 at 2 h prior to antigen challenge and then 4 h after antigen challenge. Airway resistance (SRL) was monitored for 8 h post antigen challenge and airway hyper-reactivity to carbachol (PC400) was measured 24 h post antigen challenge.
# [4] = test system: mild asthmatics; conditions: nebulized dry powder, 16 mild asthmatics, compared with placebo, cited from earlier work
# [5] = 3, 10 and 30 mg/kg subcutaneously, 24 hours after OVA aerosol challenge
SMILES,IC50 [1] [nM],also measured
"NCc1ccc2c(c1)C1(CCN(C(=O)c3ccc(C#Cc4ccccc4)o3)CC1)CO2 [Cpd 3, 1-(5-phenylethynyl-furan-2-yl)carbonyl-5′-aminomethyl-spiro[piperidine-4,3′-(2H)-benzo[b]furan]]",3.5,"reduction in BAL eosinophils ([2]; 30 mg/kg subcutaneously, 24 hours after OVA aerosol challenge): 66%; reduction in EAR as measured with whole body plethysmography (in PenH) ([2]; 30 mg/kg subcutaneously, relative to sensitized and challenged guinea pigs treated with vehicle): greater than 93%; eosinophilic BAL cell counts [2, 5]: dose-dependent reduction; total BAL cell counts [2, 5]: dose-dependent reduction; acute early phase response (EP; 0-4 h) post antigen, specific airway resistance (SRL) [3]: did not effect a change; increase in airway hyper-reactivity to carbachol (PC400) at 24 h ([3]; 24 h post antigen challenge): completely blocked; late response (LP; 4-8 h post antigen), specific airway resistance (SRL) ([3]; inhaled Ascaris suum antigen challenge): completely blocked"
NC(=O)[C@@H]1CCCN1C(=O)[C@H](CCCN=C(N)N)NC(=O)c1ccc2ccccc2c1O [APC-366],–,mean maximum decrease of forced expiratory volume in one second for late airway hyperresponsiveness ([4]; ρ=0.007): 21%; improvement for the late airway response ([4]; ρ=0.012): 33%
"CSc1sc(C(=O)N2CCC3(CC2)COc2ccc(CN)cc23)c2c1CCCC2 [Cpd 218, 1-(3-methylthio-5,6,7-trihydro-4H-benzo[c]thien-1-yl)carbonyl-5′-aminomethyl-spiro[piperidine-4,3′-(2H)-benzo[b]furan]]",8,–
"NCc1ccc2c(c1)C1(CCN(C(=O)c3ccc(-c4cccc(C(F)(F)F)c4)o3)CC1)CO2 [Cpd 135, 1-[5-(3-trifluoromethyl-phenyl)-furan-2-yl]carbonyl-5′-aminomethyl-spiro[piperidine-4,3′-(2H)-benzo[b]furan]]",330,–
"NCc1ccc2c(c1)C1(CCN(C(=O)c3sc4ccc5ccccc5c4c3Cl)CC1)CO2 [Cpd 298, 1-(1-chloro-naphtho[2,1-b]thien-2-yl)carbonyl-5′-aminomethyl-spiro[piperidine-4,3′-(2H)-benzo[b]furan]]",210,–
"COc1cccc(CC(=O)N2CCC3(CC2)COc2ccc(CN)cc23)c1 [Cpd 99, 1-(3-methoxy-benzyl)carbonyl-5′-aminomethyl-spiro[piperidine-4,3′-(2H)-benzo[b]furan]]",580,–
"CSc1ccc(C(=O)N2CCC3(CC2)COc2ccc(CN)cc23)s1 [Cpd 247, 1-(5-methylthio-thien-2-yl)carbonyl-5′-aminomethyl-spiro[piperidine-4,3′-(2H)-benzo[b]furan]]",36,–
"NCc1ccc2c(c1)C1(CCN(C(=O)c3sc(Cl)c(Cl)c3Cl)CC1)CO2 [Cpd 275, 1-(3,4,5-trichloro-thien-2-yl)carbonyl-5′-aminomethyl-spiro[piperidine-4,3′-(2H)-benzo[b]furan]]",22,–
"NCc1ccc2c(c1)C1(CCN(C(=O)/C=C/c3ccncc3)CC1)CO2 [Cpd 244, (E)-1-(pyridin-4-ylethenyl)carbonyl-5′-aminomethyl-spiro[piperidine-4,3′-(2H)-benzo[b]furan]]",2500,–
"NCc1ccc2c(c1)C1(CCN(C(=O)c3cc4ccccc4oc3=O)CC1)CO2 [Cpd 196, 1-(2-oxo-(2H)-chromen-3-yl)carbonyl-5′-aminomethyl-spiro[piperidine-4,3′-(2H)-benzo[b]furan]]",680,–
"COc1cccc2c(C(=O)N3CCC4(CC3)COc3ccc(CN)cc34)sc(SC)c12 [Cpd 235, 1-(3-methylthio-4-methoxy-benzo[c]thien-1-yl)carbonyl-5′-aminomethyl-spiro[piperidine-4,3′-(2H)-benzo[b]furan]]",9.2,–
"NCc1ccc2c(c1)C1(CCN(C(=O)/C=C/c3cccc4ccccc34)CC1)CO2 [Cpd 188, (E)-1-(naphthalen-1-ylethenyl)carbonyl-5′-aminomethyl-spiro[piperidine-4,3′-(2H)-benzo[b]furan]]",130,–
"NCc1ccc2c(c1)C1(CCN(C(=O)c3sc(SCc4ccccc4)c4ccccc34)CC1)CO2 [Cpd 240, 1-(3-benzylthio-benzo[c]thien-1-yl)carbonyl-5′-aminomethyl-spiro[piperidine-4,3′-(2H)-benzo[b]furan]]",1.8,–
"COc1ccc2c(Cl)c(C(=O)N3CCC4(CC3)COc3ccc(CN)cc34)sc2c1 [Cpd 209, 1-(3-chloro-6-methoxy-benzo[b]thien-2-yl)carbonyl-5′-aminomethyl-spiro[piperidine-4,3′-(2H)-benzo[b]furan]]",330,–
"CSc1cc(-c2ccc(Cl)cc2)c(C(=O)N2CCC3(CC2)COc2ccc(CN)cc23)s1 [Cpd 299, 1-[3-(4-chloro-phenyl)-5-methylthio-thien-2-yl]carbonyl-5′-aminomethyl-spiro[piperidine-4,3′-(2H)-benzo[b]furan]]",17,–
"NCc1ccc2c(c1)C1(CCN(C(=O)/C=C/c3cccc(F)c3F)CC1)CO2 [Cpd 312, (E)-1-(2,3-difluoro-phenylethenyl)carbonyl-5′-aminomethyl-spiro[piperidine-4,3′-(2H)-benzo[b]furan]]",590,–
"NCc1ccc2c(c1)C1(CCN(C(=O)c3cc(C#Cc4ccccc4)ccn3)CC1)CO2 [Cpd 152, 1-[4-phenylethynyl-pyridin-2-yl]carbonyl-5′-aminomethyl-spiro[piperidine-4,3′-(2H)-benzo[b]furan]]",2.3,–
"COCCCOc1cccc(/C=C/C(=O)N2CCC3(CC2)COc2ccc(CN)cc23)c1 [Cpd 301, (E)-1-[3-(3-methoxy-propoxy)-phenylethenyl]carbonyl-5′-aminomethyl-spiro[piperidine-4,3′-(2H)-benzo[b]furan]]",1500,–
"CC(=O)c1ccc(C(=O)N2CCC3(CC2)COc2ccc(CN)cc23)cc1 [Cpd 67, 1-(4-methylcarbonyl-phenyl)carbonyl-5′-aminomethyl-spiro[piperidine-4,3′-(2H)-benzo[b]furan]]",4800,–
"NCc1ccc2c(c1)C1(CCN(C(=O)Cc3ccc(-c4ccccc4)cc3)CC1)CO2 [Cpd 92, 1-(4-phenyl-benzyl)carbonyl-5′-aminomethyl-spiro[piperidine-4,3′-(2H)-benzo[b]furan]]",490,–
"Cc1nn(-c2ccc(C(=O)N3CCC4(CC3)COc3ccc(CN)cc34)o2)c(C)c1Br [Cpd 150, 1-[5-(3,5-dimethyl-4-bromo-pyrazol-1-yl)-furan-2-yl]carbonyl-5′-aminomethyl-spiro[piperidine-4,3′-(2H)-benzo[b]furan]]",180,–
"NCc1ccc2c(c1)C1(CCN(C(=O)c3ccc(-c4cc(C(F)(F)F)ccc4Cl)o3)CC1)CO2 [Cpd 129, 1-[5-(2-chloro-5-trifluoromethyl-phenyl)-furan-2-yl]carbonyl-5′-aminomethyl-spiro[piperidine-4,3′-(2H)-benzo[b]furan]]",99,–
"NCc1ccc2c(c1)C1(CCN(C(=O)c3ccc(C#Cc4ccccc4)o3)CC1)CN2C(=O)Cc1nnn[nH]1 [Cpd 330, 1-(5-phenylethynyl-furan-2-yl)carbonyl-1′-(2-1H-tetrazol-5-yl-1-oxo-ethyl)-5′-aminomethyl-spiro[piperidine-4,3′-(2H)-indole]]",25,–
"NCc1ccc2c(c1)C1(CCN(C(=O)/C=C/c3ccccc3Cl)CC1)CO2 [Cpd 186, (E)-1-(2-chloro-phenylethenyl)carbonyl-5′-aminomethyl-spiro[piperidine-4,3′-(2H)-benzo[b]furan]]",53,–
"NCc1ccc2c(c1)C1(CCN(C(=O)CC3c4ccccc4Oc4ccccc43)CC1)CO2 [Cpd 293, 1-9H-xanthen-9-ylmethylcarbonyl-5′-aminomethyl-spiro[piperidine-4,3′-(2H)-benzo[b]furan]]",1200,–
"NCc1ccc2c(c1)C1(CCN(C(=O)c3cccc(Oc4ccccc4)c3)CC1)CO2 [Cpd 115, 1-(3-phenoxy-phenyl)carbonyl-5′-aminomethyl-spiro[piperidine-4,3′-(2H)-benzo[b]furan]]",240,–
"COc1cc(CC(=O)N2CCC3(CC2)COc2ccc(CN)cc23)ccc1OCc1ccccc1 [Cpd 106, 1-(3-methoxy-4-benzyloxy-benzyl)carbonyl-5′-aminomethyl-spiro[piperidine-4,3′-(2H)-benzo[b]furan]]",610,–
"NCc1ccc2c(c1)C1(CCN(C(=O)/C=C/c3cccc(OCCc4ccccc4)c3)CC1)CO2 [Cpd 294, (E)-1-(3-phenethoxy-phenylethenyl)carbonyl-5′-aminomethyl-spiro[piperidine-4,3′-(2H)-benzo[b]furan]]",97,–
"NCc1ccc2c(c1)C1(CCN(C(=O)c3ccc(NC(=O)Cn4cnc5ccccc54)cc3)CC1)CO2 [Cpd 9, 1-(4-benzoimidazol-1-ylmethylcarbonylamino-phenyl)carbonyl-5′-aminomethyl-spiro[piperidine-4,3′-(2H)-benzo[b]furan]]",3300,–
